We go through one molecule from EPA's ToxValDB 9.5 (doi:10.2903/j.efsa.2018.5130).

One may read the LC50 as the concentration that kills 50% of the test population. By NOAEL is commonly meant the highest tested level that showed no adverse finding.

≈ marks a conversion by molar mass, not a printed value.

In data set [1] the test system is Oncorhynchus mykiss.
The subject of data set [2] is Rattus norvegicus. The conditions noted are these: developmental; development.
For data set [3], the system named is Tagia sp. To be noted: chronic/long-term; growth.
The subject of data set [4] is Anas platyrhynchos.
In data set [5] the test system is Neomysis kadiakensis. To be noted: acute; duration: 96 hours; mortality.
The subject of data set [6] is Bibionidae. To be noted: chronic/long-term; duration: 28 days; development.
For data set [7], the system named is Pleurozium sp. The conditions noted are these: acute; duration: 72 hours; growth.
In data set [8] the test system is Daphnia magna. To be noted: chronic/long-term; duration: 21 days; reproduction.
Data set [9] has as its system Folsomia candida. The conditions noted are these: chronic/long-term; duration: 28 days; reproduction.
The subject of data set [10] is Mus musculus. The conditions noted are these: acute, oral, mortality.
Data set [11] relates to Apis mellifera. To be noted: acute, mortality.
Data set [12] relates to Phasianus sp. To be noted: acute; duration: 14 days; oral; unspecified; mortality.
The subject of data set [13] is Aphidius rhopalosiphi. The data set can be described thus: LR50; higher = less toxic. To be noted: acute; mortality.

Regarding `COP(=S)(OC)Oc1c(Cl)cc(C)cc1Cl` [Tolclofos-methyl], the median lethal concentration (LC50) is 0.69 µg/mL (≈ 2.29 µM) in data set [1] (acute, duration: 96 hours, mortality) and 0.089 µg/mL (≈ 0.296 µM) in data set [5]. Besides, the NOEC in data set [1] (chronic/long-term, growth) stood at 0.012 mg/L; in data set [3], 60 mg/kg; in data set [6] it was 0.25 mg/L; in data set [7] it was 0.14 mg/L; in data set [8] it was 0.026 mg/L; in [9], 11 mg/kg. The NOAEL in data set [2] was found to be 70.6 mg/kg-day; in data set [4] (reproductive, duration: 19 weeks) it was 77 mg/kg-day. Besides, the LD50 in [4] (short-term, duration: 8 days, oral, feed, mortality) was greater than 1620 mg/kg-day; in data set [10] (F), 3600 mg/kg-day; in data set [10] (M) it was 3500 mg/kg-day; in data set [11] (duration: 48 hours, oral, unspecified) it was greater than 264 µg/piece; in [11] (duration: 72 hours, dermal), 456 µg/piece; in [12] it was greater than 5000 mg/kg-day. In data set [13], the LR50 stood at 43.7 g/ha.
